PMC10458203, “The Amoebicidal Activity of Diferrocenyl Derivatives: A Significant Dependence on the Electronic Environment” (Molecules, 2023)
Several values for one entry are separate records, joined by “and”; a condition that tells them apart may be missing. Equal entries are not always repeated. Where two headings read alike, the source gives them in different places. Marks after values point to notes of the source that are not given here.

Tests used:
[1] = tested on: trophozoites of Entamoeba histolytica HM1:IMSS strain; assay: Amoebicidal (antiproliferative) activity on trophozoite cultures, viability by trypan blue / CFDA-propidium iodide; type: cell-based; settings: for increase in the amoebicidal activity: compared with the parent compound 3a
Protocol: Trophozoites of the E. histolytica HM1:IMSS strain were axenically grown by placing 1 × 10^5 live trophozoites in tubes with 3 mL of supplemented TYI-S33 medium. Amoebic trophozoite viability exposed to 1000, 100, 10, 1, 0.1, and 0.01 μM of each experimental compound was determined at 24, 48, and 72 h with trypan blue vital marker and confirmed with the fluorescent dyes carboxyfluorescein diacetate (CFDA) and propidium iodide. Either 100 μL of Trypan blue 0.4% or 1 μL of 5 μM CFDA (Invitrogen Molecular Probes, Inc., Eugene, OR, USA) and 1 μL of 1.5 μM propidium iodide were added to samples of 100 μL containing around 1 × 10^4 treated trophozoites, mixed, and incubated at room temperature for 15 min. The final solutions were mixed and incubated at room temperature for 15 min to perform the counting with an Olympus BX51 fluorescence microscope. The IC50 values were calculated by a multivariable regression using the amoebic viability curves for the tree times evaluated on GraphPad Prism 10.0.

[2] = RP-TLC, methanol/water 80:20; standard deviation in parentheses, three determinations
[3] = parameters: method as in doi:10.1016/j.jorganchem.2017.05.002; settings: cited from earlier work
[4] = cited from earlier work
amoeba trophozoites = tested on: amoeba trophozoites; parameters: method as in PMID 27863300; settings: cited from earlier work
[5] = Electrochemical measurements (voltammetry) of redox potentials in acetonitrile; type: physicochemical; settings: TBATFB 0.1 M; for E(I) half-wave redox potential / E(II) half-wave redox potential: vs. Fc/Fc+
Protocol: Two oxidation (Ia, IIa) and two reduction (Ic, IIc) processes with half-wave potential values E(I) = −0.022 V and E(II) = 0.164 V were observed. The electronic communication between both Ferrocene units was evaluated using the ΔE(II–I) to calculate the comproportionation constant (Kcom). According to the Kcom value 1563, the mixed-valence compound is a Class II compound in the Robin–Day classification with slight electronic delocalization between the two redox centers. This slight communication between iron ions allows the identification of two independent and sequential redox processes. It confirms the absence of chemical or adsorption processes associated with redox transformation (Figure 1b). Similar results were found for compound 3e (Table 1). The relationship between redox potential values found for compounds 3a–e follows the equation EII(V) = 1.01EI(V) + 0.1897 (R^2 = 0.9894, F = 280.7, Figure 2a).
Individual diferrocenylvinyloxazolines 3a–e (Figure 6) were isolated using Al2O3 column chromatography (activity grade III, elution with hexane-ether 4:1). In the solid state, fine crystalline substances of orange color represent them. The E and Z […] could be separated by a chromatographic column. In this work, only Z-enantiomers were employed, as described in the compound characterization. The structures of compounds 3a–e were determined based on mass spectrometry, FT-IR, ^1H, and ^13C NMR spectroscopy, and elemental analysis. UV–vis spectra of 3a–e were acquired using acetonitrile solutions at different concentrations in a Genesis 30 Spectrophotometer (Thermo Scientific, Waltham, MA, USA) from 325 to 1100 nm. Electrochemical measurements for compounds 3c and 3e were performed using conditions reported previously. Briefly, acetonitrile solutions at different concentrations of the compound with tetrabutylammonium tetrafluoroborate (TBATFB) 0.1M as a supporting electrolyte, platinum disk as a working electrode, and Ag/AgNO3 as a reference in a potentiostat/galvanostat (EG&G PAR 273). The scan rate was 0.1 V/s, from open circuit potential to positive direction. Bubbling N2 deoxygenated the working solution before each measurement.

[6] = E. histolytica HM1:IMSS trophozoites, viability curves at 24, 48 and 72 h, read-out: IC50
[7] = logarithmic units of IC50 in µM

Compound	IC50 [1, 6]	−log (1/IC50) [1, 7]	logP [2]	E(I) redox potential ([3]; acetonitrile, vs. Fc/Fc+)	E(II) redox potential ([3]; acetonitrile, vs. Fc/Fc+)	E(I) redox potential [3]	E(II) redox potential [3]	increase in the amoebicidal activity [1]	other results
2-(Z-2,3-diferrocenylvinyl)-4,5-dihydrooxazole [Compound 3a]	1000 ± 46 µM	3	4.42 (0.2)	0.116 V and 0.116 ^a V	0.305 V and 0.305 ^a V	116 mV	305 mV		
C(=C(/C1=NCCS1)[c-]1cccc1)/[c-]1cccc1.[Fe+2].[Fe+2].c1cc[cH-]c1.c1cc[cH-]c1 [2-(Z-1,2-diferrocenylvinyl)-4,5-dihydro-1,3-thiazole]									E(I) redox potential [4]: 0.251 V; E(II) redox potential [4]: 0.408 V
C(=C(/C1=NCCN1)[c-]1cccc1)/[c-]1cccc1.[Fe+2].[Fe+2].c1cc[cH-]c1.c1cc[cH-]c1 [2-(Z-1,2-diferrocenylvinyl)-imidazoline]									E(I) redox potential [4]: 0.250 V; E(II) redox potential [4]: 0.437 V
COc1cc2c(c(OC)c1OC)CCC1C2=Nc2ccccc2SC1[c-]1cccc1.[Fe+2].c1cc[cH-]c1 (centres unmarked) [(2,3,4-trimethoxy-5,6,6a,7-tetrahydrobenzo[b]naphtho [1,2-e][1,4]thiazepin-7-yl)ferrocene]									IC50 (amoeba trophozoites): 12.6 µM; redox potential [4]: +0.042 V
[Fe+2].c1cc[cH-]c1.c1ccc2c(c1)CCC1C2=Nc2ccccc2SC1[c-]1cccc1 (centres unmarked) [(5,6,6a,7-tetrahydrobenzo[b]naphtho [1,2-e][1,4]thiazepin-7-yl)ferrocene]									IC50 (amoeba trophozoites): 7.5 µM; redox potential [4]: +0.005 V
CC1COC(/C(=C\[c-]2cccc2)[c-]2cccc2)=N1.[Fe+2].[Fe+2].c1cc[cH-]c1.c1cc[cH-]c1 (centres unmarked) [Compound 3b, 2-(Z-1,2-diferrocenylvinyl)-4-methyl-4,5-dihydrooxazole]	100 ± 9 µM	2	4.76 (0.1)	−0.019 ^a V	0.182 ^a V	−19 mV	182 mV	10 fold	
CC(C)C1COC(/C(=C\[c-]2cccc2)[c-]2cccc2)=N1.[Fe+2].[Fe+2].c1cc[cH-]c1.c1cc[cH-]c1 (centres unmarked) [Compound 3c, 2-(Z-1,2-diferrocenylvinyl)-4-isopropyl-4,5-dihydrooxazole]	1890 µM		5.48 (0.1)						E(I) redox potential [5]: −22 mV; E(II) redox potential [5]: 167 mV; E(I) half-wave redox potential [5]: −0.022 V; E(II) half-wave redox potential [5]: 0.167 V
C(=C(/C1=NC(c2ccccc2)CO1)[c-]1cccc1)/[c-]1cccc1.[Fe+2].[Fe+2].c1cc[cH-]c1.c1cc[cH-]c1 (centres unmarked) [Compound 3d, 2-(Z-1,2-diferrocenylvinyl)-4-phenyl-4,5-dihydrooxazole]	23 ± 3 µM	1.36	5.62 (0.2)	−0.045 ^a V	0.135 ^a V	−45 mV	135 mV	more than 40 fold	
C(=C(/C1=NC(Cc2ccccc2)CO1)[c-]1cccc1)/[c-]1cccc1.[Fe+2].[Fe+2].c1cc[cH-]c1.c1cc[cH-]c1 (centres unmarked) [Compound 3e, 2-(Z-1,2-diferrocenylvinyl)-4-benzyl-4,5-dihydrooxazole]	385 ± 11 µM	2.58	6.1 (0.09)					2.5 fold	E(I) redox potential [5]: −65 mV; E(II) redox potential [5]: 124 mV; E(I) half-wave redox potential [5]: −0.065 V; E(II) half-wave redox potential [5]: 0.124 V
Cc1ncc([N+](=O)[O-])n1CCO [Metronidazole, reference compound]									IC50 ([1]; Entamoeba histolytica, E. histolytica HM1:IMSS trophozoites, viability curves at 24, 48 and 72 h, read-out: IC50): 7 ± 0.9 µM; IC50 ([1]; Entamoeba histolytica, logarithmic units of IC50 in µM, read-out: −log (1/IC50) (converted)): 6.92 µM
